Data from the OligoGym collection.
After the bases stand the sugars from the 5' end (letter, count) and the backbone: PS all phosphorothioate, else s phosphorothioate and o phosphodiester by linkage. Methylation of C is not given here. e = 2'-O-(2-methoxyethyl) (MOE); k = constrained ethyl (cEt); d = 2'-deoxy (DNA); m = 2'-O-methyl

Target: HSD17B13
Conditions: ASO, HepaRG

Sequence	target mRNA inhibition (1 µM) [%]	also measured
CATCTATCAGACTTCT (sugars k3 d10 k3, PS)	38	–
TTCCAAATCAGGTAGT (sugars k3 d10 k3, PS)	12	–
TGTACAAATTTATGCC (sugars k3 d10 k3, PS)	67	–
TGCTATAGTAATCACA (sugars k3 d10 k3, PS)	65	–
GTGGCATGGCTACAGA (sugars kkdddddddddkekek, PS)	59	–
CATAAGAGATGAGTAG (sugars k3 d10 k3, PS)	44	–
TAACGGTGATCAAATG (sugars k3 d10 k3, PS)	17	–
ACTTCACCAACGACTC (sugars k3 d10 k3, PS)	15	–
CTTGATCTCTTAGCTG (sugars k3 d1 m1 d8 k3, PS)	32	–
TTGATATTCTGTGGCA (sugars k3 d10 k3, PS)	87	target mRNA inhibition (0.02 µM): 0%; target mRNA inhibition (0.078 µM): 17%; target mRNA inhibition (0.313 µM): 58%; target mRNA inhibition (1.25 µM): 80%; target mRNA inhibition (5 µM): 94%
AGCTAACTCAGGCTGT (sugars k3 d10 k3, PS)	14	–
ATATTGATATACGATG (sugars k3 d10 k3, PS)	0	–
AGTGAACATACATTGT (sugars k3 d10 k3, PS)	48	–
CCCTAATGTGTTTTCC (sugars k3 d10 k3, PS)	25	–
AGCTCCAGTAATGAGA (sugars k3 d10 k3, PS)	26	–
TGCTACTTGAACAGTC (sugars k3 d10 k3, PS)	81	target mRNA inhibition (0.02 µM): 3%; target mRNA inhibition (0.078 µM): 22%; target mRNA inhibition (0.313 µM): 49%; target mRNA inhibition (1.25 µM): 78%; target mRNA inhibition (5 µM): 89%
TGCATCTTAAGATACC (sugars kkdddddddddkekek, PS)	24	–
GCTTUTGTCCACCTTT (sugars k3 d1 m1 d8 k3, PS)	75	target mRNA inhibition (0.02 µM): 0%; target mRNA inhibition (0.078 µM): 0%; target mRNA inhibition (0.313 µM): 13%; target mRNA inhibition (1.25 µM): 70%; target mRNA inhibition (5 µM): 89%
CTACATGTAAGGTTTT (sugars k3 d10 k3, PS)	11	–
CACCTTTCATAATGTA (sugars k3 d10 k3, PS)	59	–
CATCTGTCTCCAATAC (sugars k3 d10 k3, PS)	32	–
GGAAATTCACAATCTA (sugars k3 d10 k3, PS)	22	–
GACAGTAAAATTATGC (sugars k3 d10 k3, PS)	57	–
GTGCATCTTAAGATAC (sugars k3 d10 k3, PS)	47	–

Sequence	target mRNA inhibition (1 µM) [%]	also measured
CTGTAGGACTCTGCTC (sugars k3 d10 k3, PS)	48	–
AGAGCGATAGATCTCT (sugars k3 d10 k3, PS)	8	–
TCATAGTGGACTTCAT (sugars k3 d10 k3, PS)	36	–
ACCTCTAAGTTAGCCC (sugars k3 d10 k3, PS)	28	–
CTAAGTTAGCCCCCAG (sugars k3 d10 k3, PS)	15	–
ATAATAATAGCTCTAT (sugars k3 d10 k3, PS)	1	–
TGACATAACTACTTCA (sugars k3 d10 k3, PS)	22	–
GGTGAACCCAGTATTC (sugars k3 d10 k3, PS)	7	–
ATGGCTACAGATTGGA (sugars kkdddddddddkekek, PS)	57	–
GACAATGTGCAGCTCT (sugars k3 d10 k3, PS)	67	–
AACAAGAGGATAGTCC (sugars k3 d10 k3, PS)	54	–
CAGAGACATGAGGTTT (sugars k3 d1 m1 d8 k3, PS)	61	–
TTAAACCTTCCCTGTG (sugars kkdddddddddkekek, PS)	0	–
TATGTAATAGCCAGTA (sugars k3 d10 k3, PS)	50	–
CTTCATAGTGGACTTC (sugars k3 d10 k3, PS)	79	target mRNA inhibition (0.02 µM): 3%; target mRNA inhibition (0.078 µM): 4%; target mRNA inhibition (0.313 µM): 28%; target mRNA inhibition (1.25 µM): 66%; target mRNA inhibition (5 µM): 93%
GAGGAGTTAGGGAGCC (sugars k3 d10 k3, PS)	36	–
TATACAGACTAAGGGA (sugars k3 d10 k3, PS)	24	–
CTTGATGTAGTGGGAG (sugars k3 d1 m1 d8 k3, PS)	67	–
CTGTTGCAAGTTCTTC (sugars k3 d10 k3, PS)	85	target mRNA inhibition (0.02 µM): 0%; target mRNA inhibition (0.078 µM): 0%; target mRNA inhibition (0.313 µM): 49%; target mRNA inhibition (1.25 µM): 73%; target mRNA inhibition (5 µM): 88%
CAAGACTTAAACACCA (sugars k3 d10 k3, PS)	55	–
ATTAATCATGGGACAG (sugars k3 d10 k3, PS)	20	–
ACAGACTGTTGAGCTC (sugars k3 d10 k3, PS)	53	–
CCAGTACAGTTCCTTT (sugars kkdddddddddkekek, PS)	75	target mRNA inhibition (0.02 µM): 29%; target mRNA inhibition (0.078 µM): 21%; target mRNA inhibition (0.313 µM): 44%; target mRNA inhibition (1.25 µM): 61%; target mRNA inhibition (5 µM): 90%
GATTAATCATGGGACA (sugars k3 d10 k3, PS)	9	–

Sequence	target mRNA inhibition (1 µM) [%]	also measured
CACCATGAAGGACTCC (sugars k3 d10 k3, PS)	48	–
GCTAGTAATTGCATCT (sugars k3 d10 k3, PS)	47	–
CTAGATTCTACACTAA (sugars k3 d10 k3, PS)	17	–
TCTAAGTTAGCCCCCA (sugars k3 d10 k3, PS)	36	–
TCTCTCCATCATCGAT (sugars k3 d10 k3, PS)	24	–
TTCGGCACTCAGCTGC (sugars k3 d10 k3, PS)	41	–
CTCTTGGGTCCATTGT (sugars k3 d10 k3, PS)	40	–
TCTTGACAATGGTTGA (sugars k3 d9 k3 e1, PS)	61	–
CGTTUTGGGCTAATGA (sugars k3 d1 m1 d8 k3, PS)	34	–
GTGAAAGCCAACAGCG (sugars k3 d10 k3, PS)	62	–
AAGTATTCCATCTATC (sugars k3 d10 k3, PS)	52	–
TAAAATAGGGTGCAGT (sugars k3 d10 k3, PS)	58	–
AAATATAGAGGGTCCA (sugars k3 d10 k3, PS)	0	–
CTCCACACCGCGCTTA (sugars k3 d10 k3, PS)	7	–
TAACTAACCTGACACA (sugars k3 d10 k3, PS)	57	–
TTGAATTCACTATCTC (sugars k3 d10 k3, PS)	45	–
TCATTATAAGCTAACT (sugars k3 d10 k3, PS)	0	–
CTATAGTAATCACAAG (sugars k3 d9 k3 e1, PS)	53	–
TGGATATACTGTCCCA (sugars k3 d10 k3, PS)	24	–
GAAGCCACTGTGACGA (sugars k3 d10 k3, PS)	58	–
CTCTGGGACCAAGGAT (sugars kkdddddddddkekek, PS)	39	–
TTTCTTATGTAATAGC (sugars kkdddddddddkekek, PS)	60	–
TGGTAAGTATTCCATC (sugars k3 d10 k3, PS)	26	–
TAATAGCCAGTACAGT (sugars k3 d9 k3 e1, PS)	64	–

Sequence	target mRNA inhibition (1 µM) [%]	also measured
AGGCAAAGATCTGGCC (sugars k3 d10 k3, PS)	7	–
TTGCAGCATTGATTCG (sugars k3 d10 k3, PS)	59	–
TTAATGCCACCCTACC (sugars kkdddddddddkekek, PS)	11	–
AGTTATTAGAAGTCAG (sugars kkdddddddddkekek, PS)	42	–
AATTCATAAGTAGTCT (sugars k3 d10 k3, PS)	28	–
GTTATTCTCTTGACAA (sugars k3 d9 k3 e1, PS)	35	–
ATGGTAAACTGTATGC (sugars k3 d10 k3, PS)	78	target mRNA inhibition (0.02 µM): 19%; target mRNA inhibition (0.078 µM): 23%; target mRNA inhibition (0.313 µM): 53%; target mRNA inhibition (1.25 µM): 75%; target mRNA inhibition (5 µM): 89%
GAATTCACTATCTCCC (sugars k3 d10 k3, PS)	38	–
TAAGAGAAGGTGCACA (sugars k3 d10 k3, PS)	12	–
TATATACCTGTTGCCT (sugars k3 d10 k3, PS)	55	–
ATTAACATTCGGCTAG (sugars k3 d10 k3, PS)	17	–
GTCTUGATGTAGTGGG (sugars k3 d1 m1 d8 k3, PS)	63	–
CCAATATATACTGACA (sugars k3 d10 k3, PS)	68	–
CAAAGTTTGGGCAGAG (sugars k3 d10 k3, PS)	44	–
TACTAATGTCCAAGGA (sugars k3 d10 k3, PS)	77	target mRNA inhibition (0.02 µM): 4%; target mRNA inhibition (0.078 µM): 0%; target mRNA inhibition (0.313 µM): 38%; target mRNA inhibition (1.25 µM): 64%; target mRNA inhibition (5 µM): 75%
TACAGACTAAGGGACC (sugars k3 d10 k3, PS)	68	–
AAACAAGAGGATAGTC (sugars k3 d1 m1 d8 k3, PS)	53	–
ATACTAATGTCCAAGG (sugars k3 d10 k3, PS)	89	target mRNA inhibition (0.02 µM): 12%; target mRNA inhibition (0.078 µM): 43%; target mRNA inhibition (0.313 µM): 94%; target mRNA inhibition (1.25 µM): 84%
AGGCTGTAAGAGTCAG (sugars kkdddddddddkekek, PS)	38	–
CCTATATACATCCAAG (sugars k3 d9 k3 e1, PS)	63	–
AATTCACCTTGACTAA (sugars k3 d10 k3, PS)	9	–
CCAAACTTGCCCATAA (sugars k3 d10 k3, PS)	45	–
GCGGCAAATTTGCTGG (sugars k3 d10 k3, PS)	0	–
